Measured values from patent US9012487B2, “Bicyclo-pyrazoles active as kinase inhibitors” (Nerviano Medical Sciences S.r.l., priority 2006, dated 2015).
pIC50: −log10 of the molar value. Counter-ions that a name gives are not always drawn.

Experiments:
IGF-1R = target: T1, IGF-1R (Homo sapiens, UniProt P08069, M1123C/Y1125N); assay: Inhibition assay for IGF-1R kinase activity (Scintillation Proximity Assay); conditions: read-out: IGF1R IC50 (μM) Biochemical assay
T1 construct: made in house; host or cells: baculovirus; virus made in Sf21, protein expressed in H5 insect cells
T1 sequence (P08069 with tags, fused parts or gaps M1123C/Y1125N): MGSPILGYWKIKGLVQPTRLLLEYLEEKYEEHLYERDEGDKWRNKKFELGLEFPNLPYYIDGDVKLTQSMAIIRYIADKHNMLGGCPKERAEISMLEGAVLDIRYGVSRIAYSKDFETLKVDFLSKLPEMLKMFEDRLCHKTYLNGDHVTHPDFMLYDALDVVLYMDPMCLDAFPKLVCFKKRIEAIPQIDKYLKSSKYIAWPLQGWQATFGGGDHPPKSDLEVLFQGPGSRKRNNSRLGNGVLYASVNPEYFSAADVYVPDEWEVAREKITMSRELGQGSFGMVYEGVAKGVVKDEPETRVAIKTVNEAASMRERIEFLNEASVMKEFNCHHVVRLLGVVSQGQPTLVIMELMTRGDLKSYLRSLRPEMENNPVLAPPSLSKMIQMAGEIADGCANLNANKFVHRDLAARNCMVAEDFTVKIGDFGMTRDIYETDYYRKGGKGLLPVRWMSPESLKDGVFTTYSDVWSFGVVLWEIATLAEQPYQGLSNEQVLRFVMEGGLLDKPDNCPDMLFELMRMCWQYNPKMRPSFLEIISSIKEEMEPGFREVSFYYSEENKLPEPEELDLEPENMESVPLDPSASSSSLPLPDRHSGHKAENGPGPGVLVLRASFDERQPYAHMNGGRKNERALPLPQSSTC
Experimental: Human cDNA was used as template for amplification by polymerase chain reaction (PCR) of the whole cytoplasmic portion of IGF-1R (amino acid residues 960-1367), which includes the entire kinase domain. PCR was conducted using the forward primer sequence 5′-[…]-3′ (SEQ ID NO: 1) and the reverse primer sequence 5′-[…]-3′ (SEQ ID NO: 2). In order to facilitate subsequent cloning steps, both primers comprise a BamHI restriction endonuclease site sequence. The PCR product was cloned into a transfer vector for the baculovirus expression system, pVL1393 (Pharmingen), modified to include the sequence encoding the Glutathione S-transferase (GST) fusion protein and a PreScission cleavage site upstream of the inserted gene of interest. The GST-IGF-1R coding region corresponds to nucleic acid residues of 4168-6084. The final protein encoded by the open reading frame corresponds to a fusion protein of 639 amino acids, shown in SEQ ID NO: 3 (FIG. 1). […]
The inhibitory activity of putative kinase inhibitors and the potency of selected compounds was determined using a Scintillation Proximity Assay (SPA) in 96 well microtiter plate format. […] When a radioactively labeled phosphate moiety is transferred by the kinase to the biotinylated peptide, this stimulates light emission by the bead, which is measured in a scintillation counter. […]

[1] = tested on: IGF-1 induced S6 ribosomal protein phosphorylation; assay: Growth factor induced S6 ribosomal protein phosphorylation in primary human fibroblasts (NHDF); type: cell-based; conditions: normal human dermal fibroblasts (NHDF), stimulated with 10 nM IGF-1; read-out: Inhibition of IGF1R-induced S6 phosphorytation IC50
Experimental: Growth Factor Induced S6 Ribosomal Protein Phosphorylation in Primary Human Fibroblasts. Phosphorylation of S6 ribosomal protein in response to growth factor stimulation of normal human dermal fibroblasts (NHDF) was used to assess compound potency in inhibiting IGF-1 induced signal transduction in cells, and selectivity towards EGF and PDGF stimulus. NHDF cells obtained from PromoCell (Heidelberg, Germany), were maintained at 37° C. in a humidified atmosphere with 5% CO2 in complete Fibroblast Growth Medium (PromoCell). For assay, NHDF were seeded in 384-well tissue culture plates (clear- and flat-bottomed black plates; Matrix Technologies Inc., Hudson, N.H., USA) at a density of 5000 cells/well in serum-free medium containing 0.1% bovine serum albumin (BSA) and incubated for 5 days. […] Fluorescence images in the DAPI and Cy5™ channels were automatically acquired, stored and analysed using a Cellomics ArrayScan™ IV instrument (Cellomics, Pittsburgh, USA); the Cellomics Cytotoxicity Algorithm was used to quantify cytoplasmic fluorescence associated with phospho-S6 (Cy5™ signal parameter: “Mean Lyso Mass-pH”) for each cell in 10 fields/well, and eventually expressed as a mean population value. […]

IGF1R = target: T2, IGF1R (Homo sapiens, UniProt P08069); assay: Western blot analysis of receptor phosphorylation following stimulation with IGF-1 in MCF-7 human breast cancer cells; type: cell-based; conditions: MCF-7 starved cells stimulated with 10 nM IGF1; increasing concentrations of compound; Western blot band of pIGF1R (FIG. 2)
T2 construct: endogenous in cells; host or cells: MCF-7 (ATCC #HTB-22)
T2 sequence (P08069 31-1367): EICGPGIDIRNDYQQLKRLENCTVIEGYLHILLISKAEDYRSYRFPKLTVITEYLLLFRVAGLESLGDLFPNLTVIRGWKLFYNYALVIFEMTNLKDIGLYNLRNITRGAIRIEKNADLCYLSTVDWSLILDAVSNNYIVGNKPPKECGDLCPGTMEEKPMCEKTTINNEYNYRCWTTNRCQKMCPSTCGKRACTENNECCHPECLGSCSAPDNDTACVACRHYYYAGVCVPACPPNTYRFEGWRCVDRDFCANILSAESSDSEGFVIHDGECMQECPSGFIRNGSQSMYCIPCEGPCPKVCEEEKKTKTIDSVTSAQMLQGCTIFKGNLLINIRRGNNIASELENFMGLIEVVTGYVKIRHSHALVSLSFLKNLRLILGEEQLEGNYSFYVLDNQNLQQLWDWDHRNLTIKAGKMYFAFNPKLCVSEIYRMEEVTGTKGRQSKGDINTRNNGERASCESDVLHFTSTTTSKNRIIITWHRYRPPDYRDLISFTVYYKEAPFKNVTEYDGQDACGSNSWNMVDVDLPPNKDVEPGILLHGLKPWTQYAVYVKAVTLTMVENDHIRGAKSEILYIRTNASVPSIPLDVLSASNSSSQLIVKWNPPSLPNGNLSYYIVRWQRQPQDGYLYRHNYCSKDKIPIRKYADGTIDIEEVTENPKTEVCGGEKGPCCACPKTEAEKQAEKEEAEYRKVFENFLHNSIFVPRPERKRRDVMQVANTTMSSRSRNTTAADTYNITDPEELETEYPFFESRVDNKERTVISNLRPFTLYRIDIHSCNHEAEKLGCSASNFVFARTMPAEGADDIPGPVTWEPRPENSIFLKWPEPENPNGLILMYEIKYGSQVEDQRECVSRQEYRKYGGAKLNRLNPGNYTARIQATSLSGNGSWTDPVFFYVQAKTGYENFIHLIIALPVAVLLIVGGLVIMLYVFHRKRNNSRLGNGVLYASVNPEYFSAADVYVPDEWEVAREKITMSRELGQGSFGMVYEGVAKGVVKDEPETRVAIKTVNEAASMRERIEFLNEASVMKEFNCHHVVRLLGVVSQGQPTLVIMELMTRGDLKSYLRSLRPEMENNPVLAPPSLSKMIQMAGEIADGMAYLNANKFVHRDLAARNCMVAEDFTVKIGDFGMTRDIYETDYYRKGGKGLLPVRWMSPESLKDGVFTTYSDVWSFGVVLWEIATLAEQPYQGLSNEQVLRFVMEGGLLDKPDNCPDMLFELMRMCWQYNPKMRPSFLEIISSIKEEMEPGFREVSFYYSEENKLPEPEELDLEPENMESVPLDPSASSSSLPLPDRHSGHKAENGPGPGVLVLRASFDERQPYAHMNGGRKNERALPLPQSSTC
Experimental: Treatment of starved MCF-7 cells with 10 nM IGF1 induced receptor auto-phosphorylation as shown by the appearance of a more intense band of phosphorylated IGF1R (pIGF1R).
Western Blot Analysis of Receptor Phosphorylation Following Stimulation with IGF-1 in MCF-7 Human Breast Cancer Cells
MCF-7 cells (ATCC #HTB-22) were seeded in 12-well tissue culture plates at 2×10^5 cells/well in E-MEM medium (MEM+Earle's BSS+2 mM glutamine+0.1 mM non-essential amino acids)+10% FCS, and incubated overnight at 37° C., 5% CO2, 100% relative humidity. Cells were then starved by replacing E-MEM+10% FCS with E-MEM+0.1% BSA, and incubating overnight. After this incubation, wells were treated with desired concentrations of compound for 1 hour at 37° C., and were then stimulated with 10 nM recombinant human IGF-1 (Invitrogen, Carlsbad, Calif., USA) for 10 minutes at 37° C. Cells were then washed with PBS and lysed in 100 microL/well cell lysis buffer (M-PER Mammalian Protein Extraction Reagent [Product #78501, Pierce, Rockford, Ill., USA]+10 mM EDTA+Protease inhibitor cocktail [Sigma-Aldrich product #P8340]+phosphatase inhibitor cocktail [Sigma-Aldrich products #P2850+#P5726]). […]

SMILES | IC50 (IGF-1R) | pIC50 [1] | inhibition of IGF1R auto-phosphorylation (IGF1R)
CCOC(=O)n1nc(NC(=O)c2ccc(N3CCN(C)CC3)c(N(C)CCOC)c2)c2c1CNC2 [Example 24, 3-[3-[(2-Methoxy-ethyl)-methyl-amino]-4-(4-methyl-piperazin-1-yl)-benzoylamino]-5,6-dihydro-4H-pyrrolo[3,4-c]pyrazole-1-carboxylic acid ethyl ester hydrochloride] | 0.34 µM | 5.52 | –
CN1CCN(c2ccc(C(=O)Nc3n[nH]c4c3CN(S(=O)(=O)c3cc(F)cc(F)c3)C4(C)C)cc2)CC1 [Example 43, N-[5-(3,5-difluoro-benzenesulfonyl)-6,6-dimethyl-1,4,5,6-tetrahydro-pyrrolo[3,4-c]pyrazol-3-yl]-4-(4-methyl-piperazin-1-yl)-benzamide] | – | – | inhibition of IGF1-induced IGF1R auto-phosphorylation
CN1CCN(c2ccc(C(=O)Nc3n[nH]c4c3CN(S(=O)(=O)c3cc(F)cc(F)c3)C4(C)C)c(F)c2)CC1 [Example 49, N-[5-(3,5-Difluoro-benzenesulfonyl)-6,6-dimethyl-1,4,5,6-tetrahydro-pyrrolo[3,4-c]pyrazol-3-yl]-2-fluoro-4-(4-methyl-piperazin-1-yl)-benzamide] | – | – | inhibition of IGF1-induced IGF1R auto-phosphorylation
